Reference: patent US10195185B2, “3-(1H-imidazo[4,5-C]pyridin-2-yl)-1H-pyrazolo[4,3-B]pyridines and therapeutic uses thereof” (Samumed, LLC, priority 2015, dated 2019)

What was measured:
[1] = test system: Primary human fibroblasts derived from IPF patients (LL29 cells) treated with TGF-β1; experiment: Inhibition of the fibrotic process: αSMA staining in TGF-β1 treated fibroblasts; type: cell-based; details: Fibroblast, 96 h, LL29 fibroblasts treated with TGF-β1, 4 days; for inhibition at 10 µM: read-out: percent inhibition in brackets beside EC50 >10 μM
Method in brief: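 Compound dilutions from 10 μM down to […] are dispensed, LL29 cells added in F12 with 1% FBS, and TGF-β1 (20 ng/mL) follows after 1 h. After 4 days, live-cell αSMA positivity is measured by immunofluorescence and normalized to TGF-β1-treated wells to derive EC50.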

[2] = test system: Wnt activity (Wnt-responsive human Sp5 promoter, TCF/LEF binding sites) in SW480 colon carcinoma cells; experiment: Wnt activity screening assay: Sp5-Luc luciferase reporter gene in SW480 cells; type: cell-based; details: for EC50: 10-point dose-response from 10 μM, incubated overnight; for inhibition at 10 µM: given for EC50 of >10 μM, read-out: percent inhibition at 10 μM
Method in brief: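 Wnt-driven firefly luciferase in SW480 colon carcinoma cells reports pathway activity after overnight compound exposure (10 μM top concentration, 3-fold steps). Signal is normalized to DMSO controls.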

In the case of `CN(C)c1cncc(-c2ccc3[nH]nc(-c4nc5c(-c6cccs6)nccc5[nH]4)c3n2)c1` [Compound 343, N,N-Dimethyl-5-(3-(4-(thiophen-2-yl)-1H-imidazo[4,5-c]pyridin-2-yl)-1H-pyrazolo[4,3-b]pyridin-5-yl)pyridin-3-amine], the EC50 [1] is reported as 477 nM and the EC50 [2] is reported as 803 nM.
Molecule `CCCC(=O)Nc1cncc(-c2ccc3[nH]nc(-c4nc5c(-c6cc(F)cc(CNS(C)(=O)=O)c6)nccc5[nH]4)c3n2)c1` [Compound 493, N-(5-(3-(4-(3-Fluoro-5-(methylsulfonamidomethyl)phenyl)-1H-imidazo[4,5-c]pyridin-2-yl)-1H-pyrazolo[4,3-b]pyridin-5-yl)pyridin-3-yl)butyramide] has an EC50 [1] greater than 10000 nM, an inhibition at 10 µM [1] of 0% and an EC50 [2] greater than 10000 nM. The inhibition at 10 µM [2] was 15.1%.
`CCNCc1cncc(-c2ccc3[nH]nc(-c4nc5c(-c6cc(F)cc(NCCN(C)C)c6)nccc5[nH]4)c3n2)c1` [Compound 454, N^1-(3-(2-(5-(5-((Ethylamino)methyl)pyridin-3-yl)-1H-pyrazolo[4,3-b]pyridin-3-yl)-1H-imidazo[4,5-c]pyridin-4-yl)-5-fluorophenyl)-N^2,N^2-dimethylethane-1,2-diamine] showed an EC50 [1] of 3680 nM and an EC50 [2] of 9950 nM.
Work on `CC(C)Nc1cncc(-c2ccc3[nH]nc(-c4nc5c(-c6cc(F)cc(NCCN(C)C)c6)nccc5[nH]4)c3n2)c1` [Compound 460, N^1-(3-Fluoro-5-(2-(5-(5-(isopropylamino)pyridin-3-yl)-1H-pyrazolo[4,3-b]pyridin-3-yl)-1H-imidazo[4,5-c]pyridin-4-yl)phenyl)-N^2,N^2-dimethylethane-1,2-diamine] yielded an EC50 [1] of 732 nM and an EC50 [2] of 1030 nM.
For `Fc1cccc(-c2nccc3[nH]c(-c4n[nH]c5ccc(C6=CCNCC6)nc45)nc23)c1` [Compound 506, 3-(4-(3-Fluorophenyl)-1H-imidazo[4,5-c]pyridin-2-yl)-5-(1,2,3,6-tetrahydropyridin-4-yl)-1H-pyrazolo[4,3-b]pyridine], the EC50 [1] was 1170 nM, the EC50 [2] was greater than 10000 nM and the inhibition at 10 µM [2] was 17.6%.
With `Fc1cccc(-c2nccc3[nH]c(-c4n[nH]c5ccc(-c6cncc(OCCN7CCCC7)c6)nc45)nc23)c1` [Compound 514, 3-(4-(3-Fluorophenyl)-1H-imidazo[4,5-c]pyridin-2-yl)-5-(5-(2-(pyrrolidin-1-yl)ethoxy)pyridin-3-yl)-1H-pyrazolo[4,3-b]pyridine] the EC50 [1] was 1790 nM and the EC50 [2] was 2450 nM.
Work on `Fc1cccc(-c2nccc3[nH]c(-c4n[nH]c5ccc(-c6cn[nH]c6)nc45)nc23)c1` [Compound 507, 3-(4-(3-Fluorophenyl)-1H-imidazo[4,5-c]pyridin-2-yl)-5-(1H-pyrazol-4-yl)-1H-pyrazolo[4,3-b]pyridine] yielded an EC50 [1] greater than 10000 nM, an inhibition at 10 µM [1] of 9.9% and an EC50 [2] greater than 10000 nM. It also gave an inhibition at 10 µM [2] of 15%.
`Cc1ccc(-c2nccc3[nH]c(-c4n[nH]c5ccc(-c6cncc(N)c6)nc45)nc23)s1` [Compound 395, 5-(3-(4-(5-Methylthiophen-2-yl)-1H-imidazo[4,5-c]pyridin-2-yl)-1H-pyrazolo[4,3-b]pyridin-5-yl)pyridin-3-amine] showed an EC50 [1] of 5070 nM and an EC50 [2] of 50 nM.
`CN(C)c1cncc(-c2ccc3[nH]nc(-c4nc5c(-c6cccc(F)c6)nccc5[nH]4)c3n2)c1` [Compound 7] gave an EC50 [1] of 387 nM and an EC50 [2] of 379 nM.
Work on `Fc1cccc(-c2nccc3[nH]c(-c4n[nH]c5ccc(-c6ccncc6)nc45)nc23)c1` [Compound 18, 3-(4-(3-Fluorophenyl)-1H-imidazo[4,5-c]pyridin-2-yl)-5-(pyridin-4-yl)-1H-pyrazolo[4,3-b]pyridine] yielded an EC50 [1] of 4220 nM and an EC50 [2] of 843 nM.
`Cn1cc(-c2ccc3[nH]nc(-c4nc5c(-c6cccc(F)c6)nccc5[nH]4)c3n2)cn1` [Compound 508, 3-(4-(3-Fluorophenyl)-1H-imidazo[4,5-c]pyridin-2-yl)-5-(1-methyl-1H-pyrazol-4-yl)-1H-pyrazolo[4,3-b]pyridine] was tested, and the EC50 [1] was 106 nM and the EC50 [2] was 115 nM.
`c1cc2[nH]c(-c3n[nH]c4ccc(-c5cncc(OCCN6CCCC6)c5)nc34)nc2c(N2CCCCC2)n1` [Compound 610, 3-(4-(Piperidin-1-yl)-1H-imidazo[4,5-c]pyridin-2-yl)-5-(5-(2-(pyrrolidin-1-yl)ethoxy)pyridin-3-yl)-1H-pyrazolo[4,3-b]pyridine] showed an EC50 [1] greater than 10000 nM, an inhibition at 10 µM [1] of 0% and an EC50 [2] greater than 10000 nM. The inhibition at 10 µM [2] was 46.2%.
With `Fc1cccc(-c2nccc3[nH]c(-c4n[nH]c5ccc(-c6cnccn6)nc45)nc23)c1` [Compound 520, 3-(4-(3-Fluorophenyl)-1H-imidazo[4,5-c]pyridin-2-yl)-5-(pyrazin-2-yl)-1H-pyrazolo[4,3-b]pyridine] the EC50 [1] was greater than 10000 nM, the inhibition at 10 µM [1] was 2.4% and the EC50 [2] was greater than 10000 nM. For the same molecule, the inhibition at 10 µM [2] was 12.2%.
`Oc1cncc(-c2ccc3[nH]nc(-c4nc5c(-c6cccc(F)c6)nccc5[nH]4)c3n2)c1` [Compound 517, 5-(3-(4-(3-Fluorophenyl)-1H-imidazo[4,5-c]pyridin-2-yl)-1H-pyrazolo[4,3-b]pyridin-5-yl)pyridin-3-ol] gave an EC50 [1] of 1560 nM and an EC50 [2] of 523 nM.
`Cc1ccc(-c2nccc3[nH]c(-c4n[nH]c5ccc(-c6cncc(NC(=O)C(C)C)c6)nc45)nc23)s1` [Compound 401, N-(5-(3-(4-(5-Methylthiophen-2-yl)-1H-imidazo[4,5-c]pyridin-2-yl)-1H-pyrazolo [4,3-b]pyridin-5-yl)pyridin-3-yl)isobutyramide] was tested, and the EC50 [1] was 2520 nM, the EC50 [2] was greater than 10000 nM and the inhibition at 10 µM [2] was 17.2%.
In the case of `CS(=O)(=O)NCc1cc(F)cc(-c2nccc3[nH]c(-c4n[nH]c5ccc(-c6cncc(NC(=O)c7ccccc7)c6)nc45)nc23)c1` [Compound 487, N-(5-(3-(4-(3-Fluoro-5-(methylsulfonamidomethyl)phenyl)-1H-imidazo[4,5-c]pyridin-2-yl)-1H-pyrazolo[4,3-b]pyridin-5-yl)pyridin-3-yl)benzamide], the EC50 [1] is reported as greater than 10000 nM, the inhibition at 10 µM [1] is reported as 0% and the EC50 [2] is reported as greater than 10000 nM. The inhibition at 10 µM [2] was 0%.
`c1cc(-c2nccc3[nH]c(-c4n[nH]c5ccc(-c6cncc(OC7CCNCC7)c6)nc45)nc23)ccn1` [Compound 576, 5-(5-(Piperidin-4-yloxy)pyridin-3-yl)-3-(4-(pyridin-4-yl)-1H-imidazo[4,5-c]pyridin-2-yl)-1H-pyrazolo[4,3-b]pyridine] was tested, and the EC50 [1] was 2390 nM, the EC50 [2] was greater than 10000 nM and the inhibition at 10 µM [2] was 17.9%.
Work on `c1cc(-c2nccc3[nH]c(-c4n[nH]c5ccc(-c6cnccn6)nc45)nc23)ccn1` [Compound 584, 5-(Pyrazin-2-yl)-3-(4-(pyridin-4-yl)-1H-imidazo[4,5-c]pyridin-2-yl)-1H-pyrazolo[4,3-b]pyridine] yielded an EC50 [1] greater than 10000 nM, an inhibition at 10 µM [1] of 0% and an EC50 [2] greater than 10000 nM. It also gave an inhibition at 10 µM [2] of 5.7%.
Molecule `Oc1cncc(-c2ccc3[nH]nc(-c4nc5c(-c6cccnc6)nccc5[nH]4)c3n2)c1` [Compound 565, 5-(3-(4-(Pyridin-3-yl)-1H-imidazo[4,5-c]pyridin-2-yl)-1H-pyrazolo[4,3-b]pyridin-5-yl)pyridin-3-ol] has an EC50 [1] of 797 nM and an EC50 [2] of 456 nM.
With `c1ccc(COc2cncc(-c3ccc4[nH]nc(-c5nc6c(-c7ccncc7)nccc6[nH]5)c4n3)c2)cc1` [Compound 582, 5-(5-(Benzyloxy)pyridin-3-yl)-3-(4-(pyridin-4-yl)-1H-imidazo[4,5-c]pyridin-2-yl)-1H-pyrazolo[4,3-b]pyridine] the EC50 [1] was greater than 10000 nM, the inhibition at 10 µM [1] was 0% and the EC50 [2] was greater than 10000 nM. For the same molecule, the inhibition at 10 µM [2] was 18.1%.
